From ChEMBL document CHEMBL5724709, “EUbOPEN Chemogenomics Library - IncuCyte” (2024) come the findings set out here.

What all share (format): toxicity, cell-based
One series has as its system U2OS. In words: Incucyte cell viability with U2OS. To be noted: human, 24 h, 10 µM, compound concentration 10 uM.
The subject of a further series is HEK-293T. The series is described as follows: Incucyte cell viability with HEK293T. To be noted: human, 24 h, 10 µM, compound concentration 10 uM.
Another series concerns Fibroblast. The series is described as follows: Incucyte cell viability with human fibroblast. To be noted: 24 h, 10 µM, compound concentration 10 uM.
Note: unitless GR value; below 1 slowed growth and below 0 cell loss.

On to `CC(=O)N[C@@H](Cc1ccc(O)cc1)C(=O)N[C@H](C(=O)N[C@@H](C)C(=O)N[C@@H](CC(=O)O)C(=O)COC(=O)c1c(C)cccc1C)C(C)C`, for which the “Growth Rate” value in the series on U2OS (replicate number 1) is recorded as 1; in the series on HEK-293T (replicate number 1), 0.9; with HEK-293T (replicate number 2), 0.84; with Fibroblast (replicate number 1), 0.47; with Fibroblast (replicate number 2), 0.72.
With `CC(=O)OCCN1C(=O)c2c(C)nc3ccc(S(=O)(=O)N4CCOCC4)cc3c2C1=O`, the “Growth Rate” value in the series on U2OS (replicate number 1) was determined as 0.83; in the series on U2OS (replicate number 2), 1; in the series on HEK-293T (replicate number 1) it was 0.92; in the series on HEK-293T (replicate number 2), 1; in the series on Fibroblast (replicate number 1) it was 0.85; in the series with Fibroblast (replicate number 2), 1.
Consider `C[C@H](NC(=O)[C@H](Cc1ccccc1)NC(=O)OCc1ccccc1)C(=O)CF`, for which the “Growth Rate” value with U2OS (replicate number 1) is given as 0.43; in the series on U2OS (replicate number 2) it was 0.93; in the series on HEK-293T (replicate number 1), 0.53; in the series on HEK-293T (replicate number 2), 0.77; in the series on Fibroblast (replicate number 1), 1.
For the compound `CCc1ccccc1NC(=O)CSC(=O)NNC(=O)[C@H](Cc1c[nH]c2ccccc12)NC(=O)OC(C)(C)C`, the “Growth Rate” value turned out to be 1 with U2OS (replicate number 1), 0.24 in the series with HEK-293T (replicate number 1), 0.54 in the series on HEK-293T (replicate number 2) and 1 with Fibroblast (replicate number 1).
As to `CC(C)C[C@@H](C=O)NC(=O)[C@@H](NS(=O)(=O)c1ccc(F)cc1)C(C)C`, the “Growth Rate” value in the series on U2OS (replicate number 1) stood at 0.76; in the series on U2OS (replicate number 2) it was 1; in the series with HEK-293T (replicate number 1), 0.64; with HEK-293T (replicate number 2), 0.92; in the series with Fibroblast (replicate number 1), 0.96; with Fibroblast (replicate number 2), 1.
As for `O=C(O)/C(S)=C/c1c[nH]c2ccc(F)cc12`, the “Growth Rate” value in the series on U2OS (replicate number 1) came out at 0.49; in the series with U2OS (replicate number 2), 1; in the series on HEK-293T (replicate number 1) it was 0.73; with HEK-293T (replicate number 2), 0.83; in the series on Fibroblast (replicate number 1), 0.7; with Fibroblast (replicate number 2), 1.
On to `CC(=O)N[C@@H](Cc1ccc(O)cc1)C(=O)N[C@H](C(=O)N[C@@H](C)C(=O)N[C@H](C=O)CC(=O)O)C(C)C`, for which the “Growth Rate” value with U2OS (replicate number 1) was 0.78; in the series with U2OS (replicate number 2) it was 0.63; in the series on HEK-293T (replicate number 1), 0.6; with HEK-293T (replicate number 2), 0.86; in the series on Fibroblast (replicate number 1) it was 0.86; with Fibroblast (replicate number 2), 0.09.
Take `CN1CCN(c2nc(-c3ccc(C(=O)NC4(C(=O)NCC#N)CCCCC4)cc3)cs2)CC1`: the “Growth Rate” value is 1 in the series with U2OS (replicate number 1); 0.86 with HEK-293T (replicate number 1); 0.8 in the series on HEK-293T (replicate number 2); 0.74 with Fibroblast (replicate number 1); 1 with Fibroblast (replicate number 2).
For `CCCNC(=O)[C@H]1O[C@@H]1C(=O)N[C@H](C(=O)N1CCC[C@H]1C(=O)O)[C@@H](C)CC`, the “Growth Rate” value in the series on U2OS (replicate number 1) came to 1; with HEK-293T (replicate number 1), 0.63; in the series on HEK-293T (replicate number 2) it was 0.84; with Fibroblast (replicate number 1), 0.65; in the series with Fibroblast (replicate number 2), 1.
With `COc1cccc(-c2nccc3c2CN(c2ccccc2)C3=O)c1`, the “Growth Rate” value in the series with U2OS (replicate number 1) was 1; with U2OS (replicate number 2), 0.84; in the series on HEK-293T (replicate number 1), 0.75; in the series on HEK-293T (replicate number 2), 0.7; in the series with Fibroblast (replicate number 1), 0.52; with Fibroblast (replicate number 2), 0.84.
Regarding `C[C@@H]1CN(c2nccc(Nc3ccc4c(c3)n(CCC(C)(C)O)c(=O)n4C)n2)C[C@H](C)C1(F)F`, the “Growth Rate” value in the series on U2OS (replicate number 1) is 0.72; in the series with U2OS (replicate number 2) it was 0.76; in the series with HEK-293T (replicate number 1), 0.03; in the series with HEK-293T (replicate number 2), 0.19; in the series with Fibroblast (replicate number 1), 0.74; in the series on Fibroblast (replicate number 2) it was 1.
With `CC(=O)Nc1ccc(-c2cc(-c3ccccc3)nc3cc(C(=O)NCCCn4ccnc4)nn23)cc1`, the “Growth Rate” value in the series with U2OS (replicate number 1) is 1; with U2OS (replicate number 2) it was 0.62; in the series with HEK-293T (replicate number 1) it was 0.47; with HEK-293T (replicate number 2), 0.63; in the series on Fibroblast (replicate number 1), 0.41; with Fibroblast (replicate number 2), 1.
On to `C[C@H](NC(=O)c1cn(C2(C#N)CC2)cn1)C(=O)Nc1nc(-c2cccc(-c3ccn(C)n3)c2)cs1`, for which the “Growth Rate” value in the series on U2OS (replicate number 1) was 0.33; in the series on U2OS (replicate number 2) it was 1; in the series with HEK-293T (replicate number 1), 0.9; with HEK-293T (replicate number 2) it was 0.86; with Fibroblast (replicate number 1), 0.43; with Fibroblast (replicate number 2), 1.
`COCCOCCn1nc2c(c1C)-c1c(Cl)ccc3c1c(C)c(C(=O)O)n3CCCOc1cc(cc3c(F)c(Cl)ccc13)CCc1cc(nn1C)CSC2`: the “Growth Rate” value in the series on U2OS (replicate number 1) was 0.15; in the series with U2OS (replicate number 2) it was 0.75; in the series with HEK-293T (replicate number 1) it was 0.27; in the series with HEK-293T (replicate number 2) it was 0.51; in the series on Fibroblast (replicate number 1) it was -0.35; with Fibroblast (replicate number 2) it was -0.82.
`Cc1cc(C(=O)N2CCN(C3CN(C(=O)c4ccc(-c5ccccc5)cc4)C3)CC2)no1`: the “Growth Rate” value with U2OS (replicate number 1) is recorded as 0.79; in the series on U2OS (replicate number 2), 1; in the series with HEK-293T (replicate number 1), 0.61; with HEK-293T (replicate number 2), 0.63; in the series with Fibroblast (replicate number 1), 0.37; in the series with Fibroblast (replicate number 2), 0.27.
Regarding `CCn1c(=O)c(C)cn(Cc2nnc(-c3ccc(F)c(OC)c3F)s2)c1=O`, the “Growth Rate” value in the series with U2OS (replicate number 1) is on record as 0.26; in the series on U2OS (replicate number 2), 1; in the series with HEK-293T (replicate number 1) it was 0.83; in the series on HEK-293T (replicate number 2) it was 0.9; with Fibroblast (replicate number 1), 0.35; with Fibroblast (replicate number 2), 1.
Consider `Cn1ncc2c(-c3c(-c4ccc(F)cn4)nn4c3COC(C)(C)C4)ccnc21`, for which the “Growth Rate” value came out at 0.55 in the series on U2OS (replicate number 1); 0.95 in the series on U2OS (replicate number 2); 0.85 in the series on HEK-293T (replicate number 1); 0.8 in the series with HEK-293T (replicate number 2); 0.66 in the series with Fibroblast (replicate number 1); 1 with Fibroblast (replicate number 2).
`CCC(NC(=O)C(CC(C)C)NC(=O)OCc1ccccc1)C(=O)C(=O)NCCCN1CCOCC1.O=C(O)C(F)(F)F` (configuration not stated): the “Growth Rate” value is on record as 1 in the series with U2OS (replicate number 1), 0.73 with HEK-293T (replicate number 1), 0.97 in the series on HEK-293T (replicate number 2) and 1 in the series on Fibroblast (replicate number 1).
With `CC(=O)N[C@@H](CC(=O)O)C(=O)N[C@@H](CCC(=O)O)C(=O)N[C@H](C(=O)N[C@H](C=O)CC(=O)O)C(C)C.O=C(O)C(F)(F)F`, the “Growth Rate” value with U2OS (replicate number 1) was determined as 1; in the series with HEK-293T (replicate number 1), 0.74; with HEK-293T (replicate number 2) it was 1; in the series with Fibroblast (replicate number 1), 0.55; with Fibroblast (replicate number 2), 0.22.
As to `CNC(=O)c1cc(Nc2ccnc(Nc3ccc(CCNC(=O)OC(C)(C)C)cc3)n2)[nH]n1`, the “Growth Rate” value in the series with U2OS (replicate number 1) is 0.07; in the series with U2OS (replicate number 2), 0.79; in the series on HEK-293T (replicate number 1), 0.07; with HEK-293T (replicate number 2), 0.24; with Fibroblast (replicate number 1), 1.
Consider `CC(=O)N[C@@H](CC(=O)O)C(=O)N[C@@H](CCC(=O)O)C(=O)N[C@H](C(=O)N[C@@H](CC(=O)O)C(=O)CCl)C(C)C.O=C(O)C(F)(F)F`, for which the “Growth Rate” value with U2OS (replicate number 1) is on record as 1; with HEK-293T (replicate number 1), 0.81; in the series on HEK-293T (replicate number 2), 1; in the series with Fibroblast (replicate number 1), 1; in the series with Fibroblast (replicate number 2), 0.21.
For `O=C(Nc1c[nH]nc1C(=O)NC1CCNCC1)c1cc(F)cc(F)c1`, the “Growth Rate” value in the series on U2OS (replicate number 1) was -0.13; in the series on U2OS (replicate number 2) it was 0.19; in the series with HEK-293T (replicate number 1), 0.15; in the series on HEK-293T (replicate number 2), 0.14; in the series with Fibroblast (replicate number 1), -0.45; with Fibroblast (replicate number 2), -0.55.
Regarding `Cn1cc(NC(=O)c2cc(F)cc(F)c2)c(C(=O)NC2CCNCC2)n1`, the “Growth Rate” value with U2OS (replicate number 1) worked out at 0.63; in the series on U2OS (replicate number 2), 0.71; with HEK-293T (replicate number 1), 0.67; in the series with HEK-293T (replicate number 2), 0.9; in the series on Fibroblast (replicate number 1), 0.67; in the series with Fibroblast (replicate number 2) it was 1.
In the case of `CC(C)c1cnc(CSc2cnc(NC(=O)C3CCNCC3)s2)o1`, the “Growth Rate” value with U2OS (replicate number 1) was -0.6; with U2OS (replicate number 2) it was -0.31; in the series with HEK-293T (replicate number 1), -0.28; with HEK-293T (replicate number 2) it was -0.09; in the series on Fibroblast (replicate number 1) it was -0.05; in the series on Fibroblast (replicate number 2), -0.46.
Regarding `CN1CCN(c2cc(C(=O)Nc3ncc(SCc4cccc(C(F)(F)F)c4)s3)ccn2)CC1`, the “Growth Rate” value in the series with U2OS (replicate number 1) came to 0.31; in the series with U2OS (replicate number 2), 0.48; in the series with HEK-293T (replicate number 1) it was 0.24; with HEK-293T (replicate number 2), 0.59; with Fibroblast (replicate number 1), 0.19; in the series with Fibroblast (replicate number 2) it was 1.
Regarding `CC(=O)N[C@@H](Cc1ccc(O)cc1)C(=O)N[C@H](C(=O)N[C@@H](C)C(=O)N[C@@H](CC(=O)O)C(=O)CCl)C(C)C`, the “Growth Rate” value is on record as 1 with U2OS (replicate number 1); 0.82 with HEK-293T (replicate number 1); 0.89 in the series on HEK-293T (replicate number 2); 0.42 in the series on Fibroblast (replicate number 1); 1 in the series on Fibroblast (replicate number 2).
On to `CC(C)(C)OC(=O)Nc1ccc(CNc2nccc(Nc3cc(C(=O)OC(C)(C)C)[nH]n3)n2)cc1`, for which the “Growth Rate” value in the series with U2OS (replicate number 1) is on record as 0.42; in the series on U2OS (replicate number 2) it was 0.67; with HEK-293T (replicate number 1) it was -0.38; with HEK-293T (replicate number 2), -0.24; in the series with Fibroblast (replicate number 1), 1; with Fibroblast (replicate number 2), 0.07.
As for `O=C(NCC1CCOCC1)c1n[nH]cc1NC(=O)c1c(F)cccc1F`, the “Growth Rate” value was 0.03 with U2OS (replicate number 1); 0.42 in the series on U2OS (replicate number 2); 0.35 in the series on HEK-293T (replicate number 1); 0.49 with HEK-293T (replicate number 2); -0.35 in the series with Fibroblast (replicate number 1); 0.3 in the series on Fibroblast (replicate number 2).
`CNC(=O)c1cnc(N2CCC[C@H](N)C2)nc1Nc1cc(C(C)C)nc(C(C)C)c1`: the “Growth Rate” value is given as -0.44 in the series with U2OS (replicate number 1); 0.05 in the series with U2OS (replicate number 2); -0.35 in the series with HEK-293T (replicate number 1); -0.02 with HEK-293T (replicate number 2); 0.72 in the series on Fibroblast (replicate number 1); 0.44 with Fibroblast (replicate number 2).
For `COC[C@@H]1CCCN1S(=O)(=O)c1ccc2c(c1)C(=O)C(=O)N2`, the “Growth Rate” value in the series on U2OS (replicate number 1) worked out at 1; in the series with HEK-293T (replicate number 1), 0.88; in the series with HEK-293T (replicate number 2), 1; in the series on Fibroblast (replicate number 1), 0.45; with Fibroblast (replicate number 2) it was 0.8.
